From ChEMBL document CHEMBL3608265, “Synthesis and inhibitory activity of substrate-analog fructosyl peptide oxidase inhibitors” (Bioorg Med Chem Lett, 2015)
Active and inactive are the calls of the source. The rule behind the calls is not given here.

Key:
[1] = Inhibition of Coniochaeta sp. FPOX-C CFP-T7 mutant using Fru-ValHis as substrate by Dixon plot analysis
Coniochaeta [2] = test: Competitive inhibition of Coniochaeta sp. FPOX-C CFP-T7 mutant using Fru-ValHis as substrate at 5 to 25 uM by Lineweaver-Burk plot analysis
Coniochaeta [3] = test: Competitive inhibition of Coniochaeta sp. FPOX-C CFP-T7 mutant using Fru-ValHis as substrate at 20 to 100 uM by Lineweaver-Burk plot analysis
Coniochaeta [4] = test: Competitive inhibition of Coniochaeta sp. FPOX-C CFP-T7 mutant using Fru-ValHis as substrate at 250 to 1250 uM by Lineweaver-Burk plot analysis

Ki [1] [µM]	inhibition (Coniochaeta [2])	inhibition (Coniochaeta [3])	inhibition (Coniochaeta [4])	SMILES
11.1	Active	–	–	CC(C)[C@H](SC[C@@]1(O)OC[C@@H](O)[C@@H](O)[C@@H]1O)C(=O)O
66.8	–	Active	–	CC(C)[C@H](SC[C@@]1(O)OC[C@@H](O)[C@@H](O)[C@@H]1O)C(=O)N[C@@H](Cc1c[nH]cn1)C(=O)O
782	–	–	Active	N[C@@H](CCCCSC[C@@]1(O)OC[C@@H](O)[C@@H](O)[C@@H]1O)C(=O)O
